Laboratory results taken from ChEMBL document CHEMBL1150659, “Pachyclavulariaenones D-G, new diterpenoids from the soft coral Pachyclavularia violacea” (2002).
≈ marks a conversion by molar mass, not a printed value.

What was measured:
A549 = assay: Cytotoxicity against human A549 cells; type: functional
HT-29 = assay: Cytotoxicity against human HT-29 cells; type: functional
P388 = assay: Cytotoxicity against mouse P388 cells; type: functional, cell-based
P-388 (Mus musculus) = assay: Cytotoxicity against mouse P-388 cells; conditions: read-out: ED50 (the source's name)

Row | SMILES | Activity (A549) | Activity (HT-29) | Activity (P388) | EC50 (P-388 (Mus musculus)) [µg/mL] | EC50 (HT-29; read-out: ED50 (the source's name)) [µg/mL]
1 | CC(=O)O[C@@H]1C[C@@H](O)[C@]2(C)OC[C@H](C)[C@H]3C(=O)C=C(C)[C@@H]4[C@H]3[C@@H]2O[C@H]4C[C@@]1(C)O | Not toxic | Not toxic | – | – | –
2 | CC1=CC(=O)[C@H]2[C@H]3[C@@H]1[C@@H]1C/C(C)=C\C[C@@H](O)[C@](C)(OC[C@@H]2C)[C@H]3O1 | Not toxic | Not toxic | Not toxic | – | –
3 | CC1=CC(=O)[C@H]2[C@H]3[C@@H]1[C@@H]1C[C@@](C)(O)[C@H](O)C[C@@H](O)[C@](C)(OC[C@@H]2C)[C@H]3O1 [PACHYCLAVULARIAENONE G] | – | – | – | 0.2 (≈ 0.546 µM) | 3.2 (≈ 8.73 µM)
4 | CC(=O)O[C@@H]1C[C@@H](OC(C)=O)[C@](C)(O)C[C@@H]2O[C@H]3[C@@H]4[C@H]2C(C)=CC(=O)[C@@H]4[C@@H](C)CO[C@@]13C | Not toxic | Not toxic | – | – | –
